According to patent publication US8916607B2, “Use of piperphentonamine or salts thereof in manufacture of medicaments for treating brain diseases” (Guangzhou Municipal Zhongwei Biotechnology Limited Company, priority 2009, dated 2014):

Test system: cerebral edema of mice caused by closed cerebral trauma
Experiment: closed cerebral trauma model of mice, brain water content
Type: in vivo, Kunming mice
Conditions: brain taken after 24 h
Experimental: There were 10 mice in each group.
The closed cerebral trauma model of mice being established after fasting for 16 hours, administering intravenously to each group, striping and taking the brain of mouse after 24 hours, weighing the wet weight, and drying at 70° C. for 24 hours, then weighing the dry weight, and calculating brainwater content; the brain water content which is higher than normal values indicates the cerebral edema.
The grouping method, administer method and model preparation were referred to example 2.

## CN(CCC(=O)/C=C/c1ccc(O)cc1)CCc1ccc2c(c1)OCO2.Cl [piperphentonamine hydrochloride, Piperphentonamine hydrochloride]
1 mg/kg iv
  water content of cerebra (%): 82.05 ± 7.57 %
2 mg/kg iv
  water content of cerebra (%): 78.67 ± 5.38 %
4 mg/kg iv
  water content of cerebra (%): 75.43 ± 8.38 %
